The values below come from patent publication US20160010086A1, “OLIGOMERIC COMPOUNDS AND EXCIPIENTS” (ISIS PHARMACEUTICALS, INC., priority 2009, published 2016).

One series has as its system PTEN mRNA. The series is described as follows: Antisense activity (pharmacodynamics) of ISIS 116847 in mouse liver. In kind it is in vivo, mice. On the procedure:
Tissues are homogenized in guanidine isothyocyanate buffer (4 M guanidine isothiocyanate, 25 mM EDTA, 1 M β-mercaptoethanol, 50 mM Tris-HCl, pH 6) immediately following sacrifice. RNA is extracted using RNeasy columns (Qiagen) according to manufacturer's protocol. RNA is eluted from the columns with water. RNA samples are analyzed by fluorescence-based quantitative RT-PCR using an Applied Biosystems 7700 sequence detector. Levels of target RNAs as well as those of cyclophilin A, a housekeeping gene, are determined. Target RNA levels were normalized to cyclophilin levels for each RNA sample. Primers used for determination of PTEN RNA level are as follows: FP 5′ […] 3′ (SEQ ID NO: 3), RP 5′ […] 3′ (SEQ ID NO: 4), and PR 5′ 6FAM-[…]-TAMRA 3′(SEQ ID NO 5). Primers used for determination of cyclophilin A RNA level are as follows: FP 5′ TCGCCGCTTGCTGCA 3′(SEQ ID NO: 6), RP 5′ ATCGGCCGTGATGTCGA 3′(SEQ ID NO: 7), and PR 5′ 6FAM-[…]-TAMRA 3′(SEQ ID NO: 8).

The conditions of series [1]: mouse, in vivo.

On to “5′-CTGCT agcctctgga TTTGA-3′ (CTGCTAGCCTCTGGATTTGA; chemistry not given here) [ISIS 116847]”, for which, in the series with PTEN mRNA (co-administered with a nonsense oligonucleotide), the “activity of the active antisense oligonucleotide” value is recorded as “enhanced”. The “pharmacodynamics with increased liver drug concentration” value with PTEN mRNA (slower infusion, lowest doses) is recorded as “did not provide improved pharmacodynamics”. Further, the “uptake in whole liver” value in series [1] is “favored at lower plasma concentrations”.
